Test system: T1, QsGH97a
T1 construct: pSMT3 His-SUMO fusion in E. coli BL21(DE3), tag cut by Ulp1; probable dimer; forward primer encodes MIRHIALFI; catalytic Glu378, Glu459, Glu483
Assay: p-nitrophenol release at […] nm, Michaelis-Menten fit
Type: biochemical, Qipengyuania seohaensis
Conditions: 20 mM Tris-HCl pH 8.0, 50 °C, no added metal ion

O=[N+]([O-])c1ccc(O[C@H]2O[C@H](CO)[C@@H](O)[C@H](O)[C@H]2O)cc1 [pNPαGlu, p-Nitrophenyl-α-D-glucopyranoside]
Km: 200 ± 20 µM
